The structures appear in SMILES notation. Counter-ions that a name gives are not always drawn.

The first assay deals with Acinetobacter baumannii ATCC17961. The assay can be described thus: Antimicrobial susceptibility testing: 90% growth inhibitory concentration (IC90) determination, Iso-Sensitest broth. The assay is classed as cell-based. To be noted: Acinetobacter baumannii, ATCC17961, 16 h, 90% growth inhibitory concentration, Acinetobacter baumannii ATCC17961, Iso-Sensitest broth, OD 600 nm over 16 h; read-out: ATCC17961 IC90. In short, it runs like this:
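Twofold serial dilutions (e.g. 50 to 0.097 μM final) in Iso-Sensitest broth, inoculum 5×10^(5) CFU/ml, incubated at 35±2° C. OD600 read every 20 minutes over 16 h; IC90 derived from growth inhibition during logarithmic phase.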
The term IC90 denotes the point of the concentration-response curve where the effect stands at 90%. As for `COc1ccc(-c2cnc3c(Nc4ccc(C(=O)N5CCN(C(=O)[C@@H]6C[C@@](OC)(C(F)(F)F)CN6)CC5)c(C)c4)nccn23)c(F)c1F` [Example 583, (4-(4-((3-(2,3-difluoro-4-methoxyphenyl)imidazo[1,2-a]pyrazin-8-yl)amino)-2-methylbenzoyl)piperazin-1-yl)((2S,4S)-4-methoxy-4-(trifluoromethyl)pyrrolidin-2-yl)methanone hydrochloride], the IC90 turned out to be 460 nM.

As for `COc1ccc(-c2cnc3c(Nc4ccc(C(=O)N5CCC(C(=O)NC[C@H]6O[C@H](O)[C@H](N)[C@@H](O)[C@@H]6O)CC5)c(C)c4)nccn23)c(F)c1F` [Example 584, N-(((2R,3S,4R,5R,6S)-5-amino-3,4,6-trihydroxytetrahydro-2H-pyran-2-yl)methyl)-1-(4-((3-(2,3-difluoro-4-methoxyphenyl)imidazo[1,2-a]pyrazin-8-yl)amino)-2-methylbenzoyl)piperidine-4-carboxamide], the concentration for an effect of 90% (IC90) amounted to 164 nM.

As to `CCc1cc(Nc2nccn3c(-c4ccc(OC(F)F)c(F)c4F)cnc23)ccc1C(=O)N1CCC(C(=O)N2C[C@H]3C[C@@H](C2)N3)CC1` [Example 589, (4-(3,6-diazabicyclo[3.1.1]heptane-3-carbonyl)piperidin-1-yl)(4-((3-(4-(difluoromethoxy)-2,3-difluorophenyl)imidazo[1,2-a]pyrazin-8-yl)amino)-2-ethylphenyl)methanone formate], the IC90 stood at 59 nM.

The same assay, now with this note: Acinetobacter baumannii, ATCC17961, 16 h, read-out: ATCC17961 IC90.
Take `CCc1cc(Nc2nccn3c(-c4ccc(OC)c(F)c4F)cnc23)ccc1C(=O)N1CC(OCCN)C1` [Example 585, (3-(2-aminoethoxy)azetidin-1-yl)(4-((3-(2,3-difluoro-4-methoxyphenyl)imidazo[1,2-a]pyrazin-8-yl)amino)-2-ethylphenyl)methanone formate]: the concentration for an effect of 90% (IC90) stood at 94 nM.

On to `COc1cc(Nc2nccn3c(-c4ccc(OC)c(F)c4F)cnc23)ccc1C(=O)N1CCN(C(=O)C2CCNCC2)CC1` [Example 587, (4-(4-((3-(2,3-difluoro-4-methoxyphenyl)imidazo[1,2-a]pyrazin-8-yl)amino)-2-methoxybenzoyl)piperazin-1-yl)(piperidin-4-yl)methanone formate], for which the IC90 turned out to be 214 nM.

On to `CCc1cc(Nc2nccn3c(-c4ccc(OC(F)F)c(F)c4F)cnc23)ccc1C(=O)N1CCN(C(=O)C2CCN(CC3CNC3)CC2)CC1` [Example 588, (1-(azetidin-3-ylmethyl)piperidin-4-yl)(4-(4-((3-(4-(difluoromethoxy)-2,3-difluorophenyl)imidazo[1,2-a]pyrazin-8-yl)amino)-2-ethylbenzoyl)piperazin-1-yl)methanone tris(2,2,2-trifluoroacetate)], for which the IC90 was determined as 116 nM.

In the case of `CCc1cc(Nc2nccn3c(-c4ccc(OC(F)F)c(F)c4F)cnc23)ccc1C(=O)N1CCC(C(=O)NCC2CCNC2)CC1` (stereo not shown) [Example 590, 1-(4-((3-(4-(difluoromethoxy)-2,3-difluorophenyl)imidazo[1,2-a]pyrazin-8-yl)amino)-2-ethylbenzoyl)-N-(pyrrolidin-3-ylmethyl)piperidine-4-carboxamide 2,2,2-trifluoroacetate formate], the IC90 worked out at 30 nM.

As to `CCc1cc(Nc2nccn3c(-c4ccc(OC(F)F)c(F)c4F)cnc23)ccc1C(=O)N1CCC(C(=O)N2CC3(CNC3)C2)CC1` [Example 591, (4-(2,6-diazaspiro[3.3]heptane-2-carbonyl)piperidin-1-yl)(4-((3-(4-(difluoromethoxy)-2,3-difluorophenyl)imidazo[1,2-a]pyrazin-8-yl)amino)-2-ethylphenyl)methanone 2,2,2-trifluoroacetate formate], the IC90 came out at 52 nM.

Regarding `CCc1cc(Nc2nccn3c(-c4ccc(OC(F)F)c(F)c4F)cnc23)ccc1C(=O)N1CCC(C(=O)N2C[C@@H]3C[C@H]2CN3)CC1` [Example 592, (4-((1S,4S)-2,5-diazabicyclo[2.2.1]heptane-2-carbonyl)piperidin-1-yl)(4-((3-(4-(difluoromethoxy)-2,3-difluorophenyl)imidazo[1,2-a]pyrazin-8-yl)amino)-2-ethylphenyl)methanone 2,2,2-trifluoroacetate formate], the IC90 is 38 nM.

For `CCc1cc(Nc2nccn3c(-c4ccc(OC(F)F)c(F)c4F)cnc23)ccc1C(=O)N1CCC(N)CC1` [Example 593, (4-aminopiperidin-1-yl)(4-((3-(4-(difluoromethoxy)-2,3-difluorophenyl)imidazo[1,2-a]pyrazin-8-yl)amino)-2-ethylphenyl)methanone formate], the concentration for an effect of 90% (IC90) is 196 nM.
